Data reported in ChEMBL document CHEMBL1129091, “Synthesis and biological evaluation of a bicyclo [7.4.1]enediyne” (Bioorg Med Chem Lett, 1996).
≈ marks a conversion by molar mass, not a printed value.

Test system: HCT-116
Experiment: In vitro cytotoxicity against human colon carcinoma cells (HCT116)
Type: functional, cell-based

## CC1(C)C2=CC(=O)CC[C@@]1(O)C#C/C=C\C#C[C@H]2O
  IC50: 18 µg/mL (≈ 70.2 µM)
